The results in this text go back to patent US11273153B2, “MAPK inhibitors” (EverBrilliant Pharma Pty Ltd, priority 2014, dated 2022).

Test [1] addresses inactive non-phosphorylated p38α MAPK (Homo sapiens (Human), UniProt Q16539). The test is described as follows: Fluorescence polarisation (FP) binding assay, inactive enzyme. On the procedure: (§1) A number of compounds were also assessed for the inhibition of p38α MAPK activity (www.kinase-screen.mrc.ac.uk) in which a radioactive (^33P-labelled ATP) filter binding assay was used to directly measure phosphate incorporation. Table 1 summarises the binding affinities of the synthesised compounds to both forms of the enzyme as well as the inhibitory activities against p38α MAPK. By way of enabling a comparison with a non-thiophene compound the biological testing was also carried out for known inhibitor RWJ67657, shown in table 1.
(§2) FP signals were measured with a PHERAstar microplate reader (BMG Labtech) using black, low-binding half-area 96 well plates (Corning). Each binding data point was carried out in duplicate or triplicate. Data were recorded in millipolarisation (mP) units and measured at an excitation wavelength of 485 nm and an emission wavelength of 520 nm. Tris(hydroxymethyl)aminomethane (Tris) assay buffer was used in all binding experiments and consisted of 10 mM Tris, […] potassium chloride, and 3.5 mM 3-((3-cholamidopropyl)dimethylammonium)-1-propanesulfonate (Chaps) at pH 8.0.
(§3) Test compounds were prepared from dimethylsulfoxide stocks (10 mM). […] Plates were incubated at room temperature for 1 hour and FP signals were recorded. For binding experiments to active p38α MAPK, the FP signals were recorded after 2 hours incubation at room temperature. Data is represented as mean±SEM from two to three independent experiments.
For orientation: Polarisation of emitted light reports the rotation of a fluorescent probe.

For test [2], the target named is active phosphorylated p38α MAPK (Homo sapiens (Human), UniProt Q16539). The test is described as follows: Fluorescence polarisation (FP) binding assay, active enzyme. On the procedure: as §1, §2, §3
Chain of active phosphorylated p38α MAPK (Q16539 whole entry): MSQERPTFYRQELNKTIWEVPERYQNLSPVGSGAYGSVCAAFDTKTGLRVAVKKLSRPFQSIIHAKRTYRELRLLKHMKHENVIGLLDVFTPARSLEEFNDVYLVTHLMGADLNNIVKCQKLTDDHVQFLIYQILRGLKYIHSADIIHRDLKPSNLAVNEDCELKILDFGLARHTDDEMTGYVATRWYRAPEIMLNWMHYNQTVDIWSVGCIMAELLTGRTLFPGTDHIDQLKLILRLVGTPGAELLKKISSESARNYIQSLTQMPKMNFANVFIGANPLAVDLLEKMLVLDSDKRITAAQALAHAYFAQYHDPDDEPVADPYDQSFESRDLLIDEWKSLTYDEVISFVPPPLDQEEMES
A further test concerns the target p38α MAPK (Homo sapiens (Human), UniProt Q16539). Nature of the test: Radioactive (33P-labelled ATP) filter binding assay of p38α MAPK activity. The test is classed as biochemical. On the procedure: as §1
Test [3] addresses p38α MAPK activation (phosphorylation) by MKK6 (Homo sapiens (Human), UniProt Q16539). The test is described as follows: In vitro activation assay (phosphorylation of p38α MAPK by MKK6, western blot). The test is classed as biochemical. The note with it: 10 μM concentration. On the procedure:
The assay was analysed by immunoblotting using antibodies against pan p38 MAPK and activated (phosphorylated) p38α MAPK. […] The reaction is initiated by the addition of ATP and MKK6 and proceeds for 15 minutes.
The assay was analysed by immunoblotting using antibodies against pan p38 MAPK and phosphorylated p38α MAPK.
The reaction was started by the addition of active MKK6 (5 ng) and ATP (100 μM). After 30 minutes incubation at room temperature, the reaction was stopped with ethylenediaminetetraacetic acid (EDTA) (10 mM). Phosphorylation of p38 MAPK was analysed by Western blotting.
Reaction samples were mixed 1:1 with Laemmli loading buffer, including β-mercaptoethanol (Biorad). Samples were heated at 95° C. for 5 minutes and 80 ng of protein was resolved using sodium dodecyl sulfate polyacrylamide gel electrophoresis (SDS-PAGE) gels (Biorad) at 200 V for 90 minutes. Proteins were transferred (100 V, 1 hour) to a polyvinylidene difluoride (PVDF) membrane (Merck). Membranes were incubated in blocking buffer (5% skim milk in Tris-buffered saline with Tween 20 (TBST), 1 hour, room temperature) and washed in TBST. Membranes were incubated with primary antibodies against total and phosphorylated p38 MAPK (1:1,000, Cell Signaling Technology) overnight at 4° C. Membranes were washed 4×15 minutes in TBST and probed with a secondary anti-mouse antibody at 1:2,000 dilution for 1 hour at room temperature, followed by washing in TBST (4×15 minutes). Signal detection was done with Western Lightning plus-ECL enhanced chemiluminescent substrate (Perkin Elmer) with the ChemiDoc Imaging System (BioRad).

Setting [4] is: Table 6, read-out: Ki ± SEM (μM) to inactive p38α.
Setting [5] is: Table 6, read-out: Ki ± SEM (μM) to active p38α.
[6] abbreviates: Table 1, read-out: Ki (μM, mean ± SEM) inactive p38α.
Setting [7] is: Table 1, average of two experiments, read-out: IC50 (μM, mean).
Where [8] appears, read: read-out: IC50 (inhibitory activity against p38α MAPK).
The mark [9] stands for this setting: Table 1, read-out: Ki (μM, mean ± SEM) active p38α.
The mark [10] stands for this setting: Table 5, read-out: Ki ± SEM (μM) to inactive p38α MAPK.
[11] abbreviates: Table 5, read-out: Ki ± SEM (μM) to active p38α MAPK.
The mark [12] stands for this setting: read-out: Ki to active p38α MAPK.

Each structure is given as a SMILES string. Read-outs that look alike come from different tables or passages of the source.

Chain of inactive non-phosphorylated p38α MAPK (Q16539 whole entry): as above
Chain of p38α MAPK (Q16539 whole entry): as above
Chain of p38α MAPK activation (phosphorylation) by MKK6 (Q16539 whole entry): as above

As usually defined, the Ki is the equilibrium dissociation constant of an inhibitor or competing ligand from its target. Take `CC(=O)c1ccc(-c2c(C#CCCO)sc(-c3ccc(F)cc3)c2-c2ccncc2)cc1` [Compound 3.53, 1-(4-(5-(4-Fluorophenyl)-2-(4-hydroxybut-1-yn-1-yl)-4-(pyridin-4-yl)thiophen-3-yl)phenyl)ethanone]: the Ki in test [1] (setting [4]) is over 10 µM; in test [2] (setting [5]), 2.2 ± 0.3 µM.
On to `OCCC#Cc1sc(-c2ccc(F)cc2)c(-c2ccncc2)c1-c1ccc(O)cc1` [Compound 3.54, 4-(5-(4-Fluorophenyl)-2-(4-hydroxybut-1-yn-1-yl)-4-(pyridin-4-yl)thiophen-3-yl)phenol], for which the values for the Ki in test [1] (setting [4]) and in test [2] (setting [5]) were over 10 µM and 3.4 µM, respectively.
In the same order, the values of `OCCC#Cc1sc(-c2ccc(F)cc2)c(-c2ccncc2)c1I` [Compound 3.55, 4-(5-(4-Fluorophenyl)-3-iodo-4-(pyridin-4-yl)thiophen-2-yl)but-3-yn-1-ol] are over 10 µM and over 10 µM.
As usually defined, the IC50 is the concentration that gives 50% inhibition. `OCCC#Cc1sc(-c2ccc(F)cc2)c(-c2ccncc2)c1C(O)CCc1ccccc1` (stereo not shown) [Compound 4.6, 4-(5-(4-Fluorophenyl)-3-(1-hydroxy-3-phenylpropyl)-4-(pyridin-4-yl)thiophen-2-yl)but-3-yn-1-ol]: the Ki in test [1] (setting [6]) was over 10 µM; in test [1] (setting [4]) it was over 10 µM; in test [2] (setting [9]) it was 3.85 µM; in test [2] (setting [5]) it was 3.9 µM. The IC50 amounted to 4.72 µM on p38α MAPK (setting [7]); 4.72 µM at p38α MAPK (Table 6, read-out: IC50 (mean)); 4.72 µM on p38α MAPK (setting [8]).
Turning to `OC(CCc1ccccc1)c1csc(-c2ccc(F)cc2)c1-c1ccncc1` (stereo not shown) [Compound 4.17, 1-(5-(4-Fluorophenyl)-4-(pyridin-4-yl)thiophen-3-yl)-3-phenylpropan-1-ol], the Ki in test [1] (setting [6]) is 1.9 ± 0.3 µM; in test [1] (setting [4]), 1.9 ± 0.3 µM; in test [2] (setting [9]) it was 0.99 ± 0.09 µM; in test [2] (setting [5]), 0.99 ± 0.09 µM. Besides, the IC50 at p38α MAPK (setting [7]) was found to be 0.26 µM; on p38α MAPK (Table 6, read-out: IC50 (mean)), 0.26 µM; at p38α MAPK (setting [8]) it was 0.26 µM.
With `Fc1ccc(-c2scc(CCCc3ccccc3)c2-c2ccncc2)cc1` [Compound 4.18, 4-(2-(4-Fluorophenyl)-4-(3-phenylpropyl)thiophen-3-yl)pyridine], the Ki in test [1] (setting [6]) amounted to 1.5 ± 0.5 µM; in test [1] (setting [4]) it was 1.5 ± 0.5 µM; in test [2] (setting [9]), 0.72 ± 0.03 µM; in test [2] (setting [5]) it was 0.72 ± 0.03 µM. The IC50 is 0.27 µM on p38α MAPK (setting [7]); 0.27 µM at p38α MAPK (Table 6, read-out: IC50 (mean)); 0.27 µM at p38α MAPK (setting [8]).
With `Fc1ccc(-c2scc(C#CCc3ccccc3)c2-c2ccncc2)cc1` [Compound 4.19, 4-(2-(4-Fluorophenyl)-4-(3-phenylprop-1-yn-1-yl)thiophen-3-yl)pyridine], in test [1], the “binding to p38α MAPK, in words” value is on record as “complete loss of binding”. Moreover, the Ki in test [1] (setting [6]) is over 10 µM; in test [1] (setting [4]) it was over 10 µM; in test [2] (setting [9]), 9.44 µM; in test [2] (setting [5]) it was 9.4 µM.
Regarding `Fc1ccc(-c2sc(I)cc2-c2ccncc2)cc1` [Compound 5.1, 4-(2-(4-Fluorophenyl)-5-iodothiophen-3-yl)pyridine], the Ki in test [1] (setting [10]) is 1.9 ± 0.4 µM; in test [1] (setting [4]), 1.9 ± 0.4 µM; in test [2] (setting [11]) it was 2.3 µM; in test [2] (setting [5]), 2.3 µM.
On to `OCCCC#Cc1cc(-c2ccncc2)c(-c2ccc(F)cc2)s1` [Compound 5.3, 5-(5-(4-Fluorophenyl)-4-(pyridin-4-yl)thiophen-2-yl)pent-4-yn-1-ol], for which the Ki in test [1] (setting [10]) turned out to be 1.7 ± 0.2 µM; in test [1] (setting [4]), 1.7 ± 0.2 µM; in test [2] (setting [11]) it was 0.8 ± 0.04 µM; in test [2] (setting [5]), 0.8 ± 0.04 µM.
Regarding `NCCC#Cc1cc(-c2ccncc2)c(-c2ccc(F)cc2)s1` [Compound 5.7, 4-(5-(4-Fluorophenyl)-4-(pyridin-4-yl)thiophen-2-yl)but-3-yn-1-amine], the Ki is 1.1 ± 0.2 µM in test [1] (setting [10]); 1.1 ± 0.2 µM in test [1] (setting [4]); 0.19 ± 0.04 µM in test [2] (setting [11]); 0.19 ± 0.04 µM in test [2] (setting [5]); 0.19 µM in test [2] (setting [12]).
In the case of `Fc1ccc(-c2sc(C#CCCN3CCOCC3)cc2-c2ccncc2)cc1` [Compound 5.8, 4-(4-(5-(4-Fluorophenyl)-4-(pyridin-4-yl)thiophen-2-yl)but-3-yn-1-yl)morpholine], the Ki in test [1] (setting [10]) came out at 2.2 ± 0.2 µM; in test [1] (setting [4]) it was 2.2 ± 0.2 µM; in test [2] (setting [11]), 2.5 µM; in test [2] (setting [5]), 2.5 µM; in test [2] (setting [12]), 2.5 µM.
In the case of `OCCCCc1cc(-c2ccncc2)c(-c2ccc(F)cc2)s1` [Compound 5.9, 4-(5-(4-Fluorophenyl)-4-(pyridin-4-yl)thiophen-2-yl)butan-1-ol], the Ki in test [1] (setting [10]) turned out to be 0.98 ± 0.02 µM; in test [1] (setting [4]), 0.98 ± 0.02 µM; in test [2] (setting [11]) it was 0.25 ± 0.04 µM; in test [2] (setting [5]) it was 0.25 ± 0.04 µM; in test [2] (setting [12]), 0.25 µM. In addition, the “inhibition of p38α MAPK activation (phosphorylation)” value in test [3] is recorded as “inhibition of p38α MAPK activation”.
For the compound `O=C(CCCO)c1cc(-c2ccncc2)c(-c2ccc(F)cc2)s1` [Compound 5.10, 1-(5-(4-Fluorophenyl)-4-(pyridin-4-yl)thiophen-2-yl)-4-hydroxybutan-1-one], the Ki in test [1] (setting [10]) stood at 2.7 ± 0.3 µM; in test [1] (setting [4]) it was 2.7 ± 0.3 µM; in test [2] (setting [11]), 0.67 ± 0.03 µM; in test [2] (setting [5]) it was 0.67 ± 0.03 µM; in test [2] (setting [12]) it was 0.67 µM. Also, the “inhibition of p38α MAPK activation (phosphorylation)” value in test [3] is “inhibition of p38α MAPK activation”.
For the compound `CCOC(=O)c1cc(-c2ccncc2)c(-c2ccc(F)cc2)s1` [Compound 5.11, Ethyl 5-(4-fluorophenyl)-4-(pyridin-4-yl)thiophene-2-carboxylate], the Ki came out at 6 ± 1 µM in test [1] (setting [10]), 6 ± 1 µM in test [1] (setting [4]), 2.2 µM in test [2] (setting [11]) and 2.2 µM in test [2] (setting [5]).
As for `O=C(O)c1cc(-c2ccncc2)c(-c2ccc(F)cc2)s1` [Compound 5.12, 5-(4-Fluorophenyl)-4-(pyridin-4-yl)thiophene-2-carboxylic acid], the Ki in test [1] (setting [10]) was 17 ± 2 µM; in test [1] (setting [4]) it was 17 ± 2 µM; in test [2] (setting [11]), 1.4 µM; in test [2] (setting [5]), 1.4 µM.
`O=C(c1cc(-c2ccncc2)c(-c2ccc(F)cc2)s1)N1CCNCC1` [Compound 5.14, (5-(4-Fluorophenyl)-4-(pyridin-4-yl)thiophen-2-yl) (piperazin-1-yl)methanone]: the Ki in test [1] (setting [10]) is 6.3 ± 0.4 µM; in test [1] (setting [4]), 6.3 ± 0.4 µM; in test [2] (setting [11]), 0.9 ± 0.1 µM; in test [2] (setting [5]), 0.9 ± 0.1 µM.
Regarding `CC(=O)c1cc(-c2ccncc2)c(-c2ccc(F)cc2)s1` [Compound 5.15, 1-(5-(4-Fluorophenyl)-4-(pyridin-4-yl)thiophen-2-yl)ethanone], the Ki in test [1] (setting [10]) is 6.4 ± 0.6 µM; in test [1] (setting [4]) it was 6.4 ± 0.6 µM; in test [2] (setting [11]), 1.4 µM; in test [2] (setting [5]) it was 1.4 µM.
As to `O=C(c1ccco1)c1cc(-c2ccncc2)c(-c2ccc(F)cc2)s1` [Compound 5.17, (5-(4-Fluorophenyl)-4-(pyridin-4-yl)thiophen-2-yl) (furan-2-yl)methanone], the Ki in test [1] (setting [10]) turned out to be 5.9 ± 0.7 µM; in test [1] (setting [4]), 5.9 ± 0.7 µM; in test [2] (setting [11]) it was 2.5 µM; in test [2] (setting [5]) it was 2.5 µM.
As for `Fc1ccc(-c2sc(-c3ccco3)cc2-c2ccncc2)cc1` [Compound 5.18, 4-(2-(4-Fluorophenyl)-5-(furan-2-yl)thiophen-3-yl)pyridine], the Ki is over 10 µM in test [1] (setting [10]), over 10 µM in test [1] (setting [4]), 1.7 µM in test [2] (setting [11]) and 1.7 µM in test [2] (setting [5]).
Regarding `Fc1ccc(-c2sc(-c3c(F)c(F)nc(F)c3F)cc2-c2ccncc2)cc1` [Compound 5.19, 2,3,5,6-Tetrafluoro-4-(5-(4-fluorophenyl)-4-(pyridin-4-yl)thiophen-2-yl)pyridine], the Ki was found to be 3.01 ± 0.03 µM in test [1] (setting [10]); 3.01 ± 0.03 µM in test [1] (setting [4]); 0.8 ± 0.1 µM in test [2] (setting [11]); 0.8 ± 0.1 µM in test [2] (setting [5]); 0.8 µM in test [2] (setting [12]).
